The values below come from patent US7884074B2, “Compounds and methods for prevention and/or treatment of inflammation using the same” (Ikaria Development Subsidiary Two, LLC, priority 2008, dated 2011).

This assay relates to RhoA. Description: thrombin induced RhoA activation in HUVEC culture (active RhoA pull-down, Western blot). Format: cell-based, human. The conditions noted are these: 5 U/ml thrombin alone, 5 min. As to the method:
The biological effect of the compounds was established in a model using thrombin induced RhoA activation in human umbilical vein endothelial cell (HUVEC) culture.
HUVEC are grown to confluence under standard conditions. Before induction of Rho activity HUVEC were starved for 4 h by using IMDM (Gibco) without growth factor and serum supplements. After the starvation period, 5 U/ml Thrombin (Calbiochem) or 5 U thrombin plus 50 μg/ml of test compound was added to the starvation medium for 1, 5 and 10 min. Active RhoA was isolated using Rho Assay Reagent from Upstate according to manufactures instructions. Isolates were separated on a 15% polyacrylamide gel and blotted on Nitrocellulose-Membrane (Bio-Rad). RhoA was detected by using Anti-Rho (-A, -B, -C), clone55 from Upstate (1:500).

As for thrombin, the “Relative RhoA stimulation compared to unstimulated control” value stood at 5.6.
